Results from paper PMC8765048 (JCI Insight, 2022).
Where two headings read alike, the source gives them in different places.

Test: 24-hour plasma pharmacokinetics in CD-1 laboratory mice
Type: in vivo, mouse
Details: for apparent volume of distribution / total clearance / area under the curve to the last time point / Cmax: CD-1 mice, i.p. 60 mg/kg; for area under the curve to the last time point: 24 h; for Cmax: mouse, plasma, ip
Description: We next evaluated the 24-hour pharmacokinetics (PK) of sangivamycin in CD-1 laboratory mouse plasma. Sangivamycin’s plasma concentrations increased following i.p. injection of 60 mg/kg to a peak at 2 hours, then decreased over 6 or 8 hours, and remained virtually unchanged up to 24 hours after dosing. […] Graphing plasma concentration versus time produced an area under the curve to the last time point with values of 632 ± 66.6 h•ng/mL for males and 833 ± 53.9 h•ng/mL for females. […] Our data corroborate historical PK studies in mice with ^3H-labeled sangivamycin performed at the NCI in 1974 ([20]). In these studies, free nucleoside and mono-, di-, and triphosphate forms of sangivamycin were detected in blood, urine, and multiple tissues (e.g., heart, liver, brain, spleen, and kidneys) following i.p. injection of 8 mg/kg. The studies established that sangivamycin was phosphorylated after transportation into cells. In liver, heart, and brain, the predominant form of sangivamycin was sangivamycin 5′-monophosphate (SMP). […] Therefore, we determined the level of SMP in blood in our PK study using a published liquid chromatography–tandem mass spectrometry (LC-MS/MS) method with a lower limit of quantification of 1 ng/mL ([33]). Using this method, we detected SMP in the plasma of dosed mice but not control mice (Supplemental Figure 9B). The apparent levels of SMP increased in blood during the 24 hours of this study. There also was possible presence of a diphosphate metabolite of sangivamycin, but it was detected only in the plasma samples taken 24 hours after dosing.

For `NC(=O)c1cn([C@@H]2O[C@H](CO)[C@@H](O)[C@H]2O)c2ncnc(N)c12` [Sangivamycin, sangivamycin], the “apparent volume of distribution” value (females) was 167,000 mL/kg, the total clearance (females) was 68,500 mL/h/kg and the “area under the curve to the last time point” value (females) was 833 ± 53.9 ng·h/mL. The “apparent volume of distribution” value (males) was 369,000 mL/kg, the total clearance (males) was 85,400 mL/h/kg and the “area under the curve to the last time point” value (males) was 632 ± 66.6 ng·h/mL. It also gave a Cmax (female, females (285 ng/mL), read-out: Cmax, molar equivalent) of 922 nM, a Cmax (female, females, read-out: Cmax of the plasma) of 285 ± 35.9 ng/mL and a Cmax (male, males (97.3 ng/mL), read-out: Cmax, molar equivalent) of 314 nM. For the same compound, the Cmax (male, males, read-out: Cmax of the plasma) was 97.3 ± 31 ng/mL and the “Cmax relative to the average IC90 in the 3 cell lines tested” value (mouse plasma Cmax 314 nM and 922 nM) was 3- to 9 fold.
